# Test results from US20200215099A1, “NON-ANTICOAGULANT SULFATED OR SULFONATED POLYSACCHARIDES” (Baxalta Incorporated, priority 2012, published 2020).
# “Also recorded” adds a separate entry of the source. Read-outs that look alike come from different tables or passages of the source.
# Key:
# FVIII-inhibited plasma = assay: Thrombin generation assay (CAT) in FVIII-inhibited plasma; format: biochemical, human; conditions: for EC50: half maximal thrombin peak
# Experimental: The procoagulant activity of the sulfated polysaccharides was assessed by the Thrombin Generation Assay (TGA). The influence of each sulfated polysaccharide on thrombin generation was measured in duplicate via CAT in a Fluoroskan Ascent® reader (Thermo Labsystems, Helsinki, Finland; filters 390 nm excitation and 460 nm emission) following the slow cleavage of the fluorogenic substrate Z-Gly-GIy-Arg-AMC (Hemker H C. Pathophysiol Haemost Thromb (2003) 33(4):15). To each well of a 96 well microplate (Immulon 2HB, clear U-bottom; Thermo Electron) 80 μL of pre-warmed (37° C.) goat anti FVIII antibody treated human normal plasma pool was added. For triggering thrombin generation by tissue factor, 104 of PPP reagent containing a certain amount of recombinant human tissue factor (rTF) and phospholipid vesicles composed of phosphatidylserine, phosphatidylcholine and phosphatidylethanolamine (final concentration of 4 μM) (Thrombinoscope BV, Maastricht, The Netherlands) was added. For studying the procoagulant activity of sulfated polymers a final TF concentration of 1 pM was used to provide FVIII and TFPI sensitivity of the test system. Just prior to putting the plate into the pre-warmed (37° C.) reader, 10 µL of test or reference sample or calibrator compound was added. Thrombin generation was started by dispensing 204 of FluCa reagent (Thrombinoscope BV, Maastricht, The Netherlands) containing fluorogenic substrate and Hepes buffered CaCl2 (100 mM) into each well and fluorescence intensity was recorded at 37° C.
# The parameters of the resulting thrombin generation curves were calculated using the Thrombinoscope™ software (Thrombinoscope BV, Maastricht, The Netherlands) and thrombin calibrator to correct for inner filter and substrate consumption effects (Hemker H C, Pathophysiol Haemost Thromb (2003) 33(4):15). With the thrombin calibrator as a reference, the molar concentration of thrombin in the test wells was calculated by the software. The thrombin amounts at the peak and peak times of each thrombin generation curve (peak thrombin, nM) were plotted against sulfated polysaccharide concentrations resulting in the procoagulant profile of these compounds. The thrombin generation assay results are illustrated in the figures appended hereto. From these plots half maximal effective concentrations (EC50) values are determined using a sigmoidal curve fit. The EC50 represents the concentration at which the half maximal thrombin peak is reached.
# normal human plasma = assay: Activated partial thromboplastin time assay (aPTT); format: biochemical; conditions: for Ratio aPTT/CAT: 50% increase clotting time / CAT EC50; for 50% Increase Clotting Time: concentration where clotting time is 50% increased over normal plasma control; for anticoagulant activity (in words): aPTT compared with procoagulant CAT concentration
# Experimental: The aPTT assay was performed to study anticoagulant activities of NASP. In brief, 50 μL of thawed normal human plasma pool (George King Biomedical, Overland Park, Kans.) was mixed with 5 μL of NASP sample (0-60 μg/mL final plasma concentration). NASPs were diluted in imidazole buffer (3.4 g/L imidazole; 5.85 g/L NaCl, pH 7.4) containing 1% albumin (Baxter, Austria). After addition of 50 μL aPTT reagent (STA APTT, Roche) the samples were incubated for 4 min at 37° C. Clotting was initiated by 50 μL of 25 mM CaCl2 solution (Baxter, Austria) and recorded for up to 5 min. All pipetting steps and clotting time measurements were carried out with an ACL Pro Elite (Instrumentation Laboratory, Bedford, Mass.) instrument. Samples were run in duplicate.
# For data analysis, clotting time is plotted against the NASP concentration. Concentrations where the clotting time is 50% increased over the normal plasma control are determined using a linear curve fit.
# full-length TFPI = molecular target: T1, full-length TFPI (Homo sapiens, UniProt P10646); assay: Dilute prothrombin time assay with added TFPI (TFPI-dPT); format: biochemical; conditions: for EC50 TFPI-dPT: normal human plasma with rec. FL-TFPI; for reversal of the effect of rec. FL-TFPI (in words): normal human plasma
# T1 construct: 0.5 μg/mL full-length TFPI (aa 1-276, constitutively produced by SKHep1); made in house; host or cells: SKHep1
# T1 sequence (P10646 29-304): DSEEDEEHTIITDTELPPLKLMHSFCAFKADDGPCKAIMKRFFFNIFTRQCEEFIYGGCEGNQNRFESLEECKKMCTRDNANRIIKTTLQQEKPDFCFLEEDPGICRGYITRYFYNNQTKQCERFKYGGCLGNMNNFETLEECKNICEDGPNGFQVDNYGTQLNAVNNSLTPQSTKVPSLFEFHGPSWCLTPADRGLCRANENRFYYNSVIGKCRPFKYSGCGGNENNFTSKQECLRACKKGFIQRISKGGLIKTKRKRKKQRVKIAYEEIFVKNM
# Experimental: A dilute prothrombin time assay with added TFPI (TFPI-dPT) was used to evaluate the TFPI-inhibiting effect of the different NASPs. Pooled normal human plasma (George King Biomedical, Overland Park, Kans.) was pre-incubated with 0.5 μg/mL full-length TFPI (aa 1-276, constitutively produced by SKHep1) and the respective NASP (0-5 μg/mL) for 15 min at RT. TF reagent TriniClot PT Excel S (Trinity Biotech, Wicklow, Ireland), diluted in Hepes-buffered saline 1:200 with 0.5% BSA was added to the plasma samples on an ACL Pro Elite hemostasis analyzer (Instrumentation Laboratory, Bedford, Mass.). Clotting was initiated with 25 mM CaCl2). The volume ratio of plasma:TF:CaCl2 was 1:1:1.
# For data analysis, TFPI-dPT is plotted against the log concentration. Half maximal effective concentrations (EC50) values are determined using a sigmoidal curve fit.
# [1] = system: FVIII-inhibited human whole blood; assay: Rotation thromboelastometry (ROTEM); conditions: ROTEM, 0.044 pM TF
# Experimental: NASPs (0.4-11 μg/mL) were studied in fresh citrated human whole blood by rotation thromboelastometry (ROTEM), an assay that allows continuous visco-elastic assessment of whole blood clot formation and firmness. Blood was incubated with anti-human FVIII plasma raised in goat (Baxter Bioscience, Austria) at 50 BU/mL to simulate hemophilic conditions. Clotting was triggered with 0.044 pM tissue factor (TF) (PRP reagent, Thrombinoscope BV) in the presence of 40 μg/mL CTI (Haematologic Technologies Inc., Essex Junction, Vt., USA). Then 300 μL of the pre-warmed (37° C.) FVIII-inhibited blood was recalcified with 20 μL of a 0.2 M CaCl2 solution. Clot formation was monitored using a ROTEM instrument (Pentapharm Munich, Germany) at 37° C. The final assay concentration of rTF was 44 fM. The ROTEM recording was started immediately and measured for at least 120 min. Each blood sample was analyzed in two independent measurements.
# The thromboelastographic parameters of clotting time (CT), clot formation time (CFT) and maximum clot firmness (MCF) were recorded in accordance with the manufacturer's instructions. The first derivative of the thromboelastogram data is plotted to obtain a graph of velocity (mm/s) against time (s). From this graph, the maximum velocity (maxV) and the time at which the maximum velocity is reached (maxV-t) are also determined.
# contact pathway = assay: CAT in normal plasma with and without CTI; format: biochemical; conditions: for concentration activating the contact pathway: normal plasma, 1 pM hTF, 4 μM PL, ±41 μg/mL CTI
molecule,measurement,setting,value
Maltotriose,EC50,"FVIII-inhibited plasma; 1 pM hTF, 4 μM PL",20.6 µg/mL
Maltopentaose,procoagulant activity (in words),FVIII-inhibited plasma,substantial procoagulant activity
same,EC50,"FVIII-inhibited plasma; 1 pM hTF, 4 μM PL",about 2 μg/mL
same,EC50,"FVIII-inhibited plasma; 1 pM hTF, 4 μM PL, listed as maltopentose",2.1 µg/mL
"sulfated xylan [sulfated xylan (14.7% S, 22 kD)]",procoagulant activity (in words),FVIII-inhibited plasma,procoagulant at low concentrations
same,procoagulant at (concentration),"FVIII-inhibited plasma; 37° C., 1 pM hTF, 4 μM PL",about 0.01 μg/mL
same,EC50,"FVIII-inhibited plasma; 1 pM hTF, 4 μM PL",0.1 µg/mL
same,procoagulant activity (in words),FVIII-inhibited plasma; listed as Sulfated xylan,good procoagulant activity in CAT assays at very low concentrations
Cellotetraose,EC50,"FVIII-inhibited plasma; 1 pM hTF, 4 μM PL",4.8 µg/mL
xylohexaose,EC50,"FVIII-inhibited plasma; 1 pM hTF, 4 μM PL",4.8 µg/mL
OC[C@H]1O[C@@](CO)(O[C@H]2O[C@H](CO)[C@@H](O)[C@H](O)[C@H]2O)[C@@H](O[C@H]2O[C@H](CO)[C@@H](O)[C@H](O)[C@H]2O)[C@@H]1O [melezitose],EC50,"FVIII-inhibited plasma; 1 pM hTF, 4 μM PL",13.5 µg/mL
"Fucoidan [Fucoidan (Control), reference compound]",Ratio aPTT/CAT,normal human plasma,23.3
same,50% Increase Clotting Time,normal human plasma,7.0 µg/mL
same,EC50,"FVIII-inhibited plasma; 1 pM hTF, 4 μM PL",0.3 µg/mL
"icodextrin [unsulfated icodextrin, reference compound]",procoagulant activity (in words),FVIII-inhibited plasma,not procoagulant
"sulfated 6-carboxy-icodextrin [6-carboxy-Icodextrin (unfractionated, batch 1)]",Ratio aPTT/CAT,normal human plasma,80.0
same,anticoagulant activity (in words),normal human plasma,non-anticoagulant at its optimal procoagulant concentration
same,50% Increase Clotting Time,normal human plasma,3.2 µg/mL
same,EC50,"FVIII-inhibited plasma; 1 pM hTF, 4 μM PL, listed as sulfated 6-carboxyicodextrin (21.6 kDa, 10.6% S)",0.04 µg/mL
same,procoagulant activity (in words),"FVIII-inhibited plasma; listed as sulfated 6-carboxyicodextrin (21.6 kDa, 10.6% S)",procoagulant at very low concentrations
same,EC50 TFPI-dPT,full-length TFPI,0.26 µg/mL
same,reversal of the effect of rec. FL-TFPI (in words),"full-length TFPI; listed as sulfated 6-carboxy-icodextrin (21.6 kDa, 10.6% S)",reverses the effect of rec. FL-TFPI in plasma
Cellotriose,EC50,"FVIII-inhibited plasma; 1 pM hTF, 4 μM PL",30.9 µg/mL
Cellopentaose,procoagulant activity (in words),FVIII-inhibited plasma,substantial procoagulant activity
same,EC50,"FVIII-inhibited plasma; 1 pM hTF, 4 μM PL",1.9 µg/mL
"sulfated 6-carboxy-icodextrin [6-carboxy-Icodextrin (unfractionated, batch 2)]",restoration of coagulation (in words),[1]; listed as sulfated 6-carboxy-icodextrin (35 kDa; 10.1% S),restores coagulation in human FVIII-inhibited blood
same,Ratio aPTT/CAT,normal human plasma,57.0
same,50% Increase Clotting Time,normal human plasma,4.0 µg/mL
same,EC50,"FVIII-inhibited plasma; 1 pM hTF, 4 μM PL, listed as sulfated 6-carboxyicodextrin (35 kDa, 10.1% S)",0.07 µg/mL
same,procoagulant activity (in words),"FVIII-inhibited plasma; listed as sulfated 6-carboxyicodextrin (35 kDa, 10.1% S)",procoagulant at very low concentrations
sulfated maltopentaose [Maltopentaose (Baxter)],restoration of coagulation (in words),[1],restore coagulation parameters of FVIII-inhibited whole blood
same,restoration of coagulation (in words),[1]; listed as sulfated maltopentose (15% S),restores coagulation to normal in FVIII-inhibited blood
same,Ratio aPTT/CAT,normal human plasma,1.4
same,anticoagulant activity (in words),normal human plasma,become anticoagulant within their procoagulant window
same,50% Increase Clotting Time,normal human plasma,3.3 µg/mL
same,procoagulant activity (in words),FVIII-inhibited plasma,good procoagulant activity
same,EC50,"FVIII-inhibited plasma; 1 pM hTF, 4 μM PL",2.4 µg/mL
same,EC50 TFPI-dPT,full-length TFPI,0.15 µg/mL
same,reversal of the effect of rec. FL-TFPI (in words),full-length TFPI; listed as sulfated maltopentaose (15% S),reverses the effect of rec. FL-TFPI in plasma; also recorded: reverses the effect of recombinant Full Length-Tissue Factor Pathway Inhibitor
same,activation of the contact pathway (in words),contact pathway,No activation of the contact pathway
same,concentration activating the contact pathway,contact pathway,> 33000 ng/mL
OC[C@H]1O[C@H](OC[C@H]2O[C@H](O[C@]3(CO)O[C@H](CO)[C@@H](O)[C@@H]3O)[C@H](O)[C@@H](O)[C@@H]2O)[C@H](O)[C@@H](O)[C@H]1O [raffinose],EC50,"FVIII-inhibited plasma; 1 pM hTF, 4 μM PL",7.4 µg/mL
sulfated β-cyclodextrin [β-Cyclodextrin (Sigma)],restoration of coagulation (in words),[1],restore coagulation parameters of FVIII-inhibited whole blood
same,restoration of coagulation (in words),[1]; listed as sulfated β-cyclodextrin (18.9% S),restores coagulation to normal in FVIII-inhibited blood
same,Ratio aPTT/CAT,normal human plasma,5.1
same,anticoagulant activity (in words),normal human plasma,become anticoagulant within their procoagulant window
same,50% Increase Clotting Time,normal human plasma,3.6 µg/mL
same,EC50,"FVIII-inhibited plasma; 1 pM hTF, 4 μM PL",1.8 µg/mL
same,EC50,"FVIII-inhibited plasma; 1 pM hTF, 4 μM PL, listed as sulfated β-cyclodextrin",0.7 µg/mL
same,EC50,"FVIII-inhibited plasma; 1 pM hTF, 4 μM PL, listed as β-cyclodextrin",about 2 μg/mL
same,procoagulant activity (in words),FVIII-inhibited plasma; listed as sulfated β-cyclodextrin,good procoagulant activity
same,procoagulant activity (in words),FVIII-inhibited plasma; listed as β-cyclodextrin,substantial procoagulant activity
same,reversal of the effect of rec. FL-TFPI (in words),full-length TFPI,reverses the effect of rec. FL-TFPI in plasma
same,EC50 TFPI-dPT,full-length TFPI,0.08 µg/mL
same,activation of the contact pathway (in words),contact pathway,No activation of the contact pathway
same,concentration activating the contact pathway,contact pathway,> 33000 ng/mL
α-cyclodextrin,procoagulant activity (in words),FVIII-inhibited plasma,substantial procoagulant activity
6-carboxyicodextrin [reference compound],procoagulant activity (in words),FVIII-inhibited plasma,not procoagulant
stachyose,procoagulant activity (in words),FVIII-inhibited plasma,substantial procoagulant activity
same,EC50,"FVIII-inhibited plasma; 1 pM hTF, 4 μM PL",2.3 µg/mL
Maltotetraose,procoagulant activity (in words),FVIII-inhibited plasma,substantial procoagulant activity
same,EC50,"FVIII-inhibited plasma; 1 pM hTF, 4 μM PL",5.0 µg/mL
